In article PMC4963854, “Mapping Protein–Protein Interactions of the Resistance-Related Bacterial Zeta Toxin–Epsilon Antitoxin Complex (ε2ζ2) with High Affinity Peptide Ligands Using Fluorescence Polarization” (Toxins, 2016):
Read-outs that look alike come from different tables or passages of the source. Ends that are not written are not given here. Peptide text beside a SMILES is read from it. * marks the point of attachment. 5FAM = O=C1OC2(c3ccc(O)cc3Oc3cc(O)ccc32)c2ccc(C(=O)*)cc21

How the values were obtained:
[1] = target: T1, Epsilon protein (His6-Epsilon) (Streptococcus pyogenes, UniProt Q57231); assay: Fluorescence polarization (FP) direct binding assay of fluorescein-labeled peptides to Epsilon
T1 construct: His6 (N); made in house; host or cells: E. coli BL21 (DE3)
T1 sequence (Q57231 1-90): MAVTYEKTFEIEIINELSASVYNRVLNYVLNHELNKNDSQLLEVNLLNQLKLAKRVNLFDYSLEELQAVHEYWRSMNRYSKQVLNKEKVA
Description: Binding affinities of the fluorescein-labeled peptides Fluo-(I–III) with Epsilon protein were determined in a fluorescence polarization (FP) assay. For the purpose, 10 nM solutions of each fluorescein-labeled peptide containing different concentrations of Epsilon (from 5 nM to 7.5 µM) were irradiated with polarized light at the excitation wavelength of 470 nm and the polarization of the emitted light was recorded in mP at […] (see Section 4).
Figure 3 Dose-response curve for the binding of Fluo-(I–II) to the Epsilon protein. The fluorescent-labeled peptides Fluo-(I–II) at a concentration of 10 nM were treated with increasing concentrations of Epsilon (from 0.05 nM to 2.5 µM) in 10 mM HEPES assay buffer, pH 7.5, with 0.1% Tween-20. Values are plotted as the means ± standard deviation (n = 3) from three independent experiments.
For fluorescence polarization measurements, peptides were dissolved in DMSO at 10 mM and diluted in 10 mM HEPES (pH 7.5) containing 0.1% Tween-20. The assay was conducted on untreated black 384-well microtiter plates (low volume, non-binding surface, round bottom, non-sterile black polystyrene, Corning B.V. Life Sciences, Nr. 3676, Kennebunk, ME, USA) in a final volume of 10 µL, using 10 mM HEPES (pH 7.5) with 0.1% Tween-20 as a buffer. The final DMSO proportion in the assay was less than 0.1%. The measurements were performed on a SAFIRE II (Tecan) microplate reader, using an excitation wavelength of 470 nm and emission wavelength of 525 nm. The final assay mixtures contained 5 µL fluorescein-labeled peptide (furnishing a final assay concentration of 10 nM), and 5 µL of increasing amounts of Epsilon protein (final concentrations ranging from 0.05 nM to 5 µM). The negative controls comprised 5 µL fluorescein-labeled peptide (maintaining a final assay concentration of 10 nM) and 5 µL 10 mM HEPES buffer (pH 7.5) containing 0.1% Tween-20. To avoid protein aggregation, Tween-20 (0.1% final concentration) was used as a detergent in all experiments. After adding the fluorescent peptide, the plates were centrifuged (2000 min^−1, 3 min) and shaken briefly (2000 rpm for 10 min at room temperature), and polarization of the emitted fluorescence was directly recorded. In every case, the well containing only the fluorescein-labeled peptide was subtracted from the assay well as background. The polarization values (mP) were plotted as a function of the logarithm of the protein concentration. […] All of the experiments were carried out in duplicate in three independent experiments, and the results are expressed as the mean ± standard deviation (SD).

[2] = target: T1, Epsilon protein (His6-Epsilon); assay: Competitive FP binding assay: acetylated peptides displace fluorescein-labeled peptide from Epsilon; conditions: unlabeled peptide 0.01-100 µM, 10 mM HEPES pH 7.5, 0.1% Tween-20, 384-well, duplicates in three independent experiments ± SD
Source text: The fluorescent high-affinity peptide ligands could be the basis for an especially economic and reliable high-throughput assay, if the fluorescence polarization read-out can be used for the screening of potential ligands that are able to bind to Epsilon in a competitive binding assay. For this purpose, we utilized the unlabeled peptides Ac-Ia and Ac-IIb containing the same amino acid sequence as the initial peptides but with their N-terminus modified by the introduction of an acetyl group. The competitive binding assays were performed by using appropriate amounts of Epsilon protein based on the binding affinity, expressed in terms of the KD value, for the labeled peptides Fluo-Ia and Fluo-IIb. In both cases, the protein concentration was set to the KD value and 5-fold the KD value to study the influence of the protein concentration on the IC50-value of every acetylated peptide. Thus, the Epsilon protein (100 nM or 500 nM final concentration) was treated with Fluo-Ia or Fluo-IIb (10 nM final concentration). After incubation, each mixture was treated with different concentrations of the unlabeled peptides Ac-Ia and Ac-IIb, ranging from 0.01 to 100 µM. […] The ability to identify active compounds (hits) from a particular high-throughput screening (HTS) assay depends largely on the suitability or quality of the assay conditions used in the screening. […]
Figure 5 Competitive binding of the fluorescein-labeled peptides Fluo-Ia and Fluo-IIb to the Epsilon protein in 384-well plates. […] Fluorescence polarization was measured on a SAFIRE II (Tecan, Crailsheim, Germany) microplate reader, using an excitation wavelength of 470 nm and emission wavelength of 525 nm. […]
For the competitive binding assays, unlabeled peptides containing the same amino acid sequence as the previous one but with the N-terminal end modified by the introduction of acetyl group were used. […] The measurements were performed on a SAFIRE II microplate reader (Tecan), using an excitation wavelength of 470 nm and emission wavelength of 525 nm. […]

[3] = 10 nM fluorescein-labeled peptide titrated with Epsilon, 10 mM HEPES pH 7.5, 0.1% Tween-20, no NaCl, ex 470 nm/em 525 nm, EC50 taken as KD (Q close to 1), three independent experiments, n = 3 ± SD, SD, read-out: Binding constant KD

| Molecule | Kd [1, 3] [nM] | other results |
| --- | --- | --- |
| CC[C@H](C)[C@H](NC(=O)[C@H](CC(C)C)NC(=O)[C@H](CCC(=O)O)NC(=O)[C@H](CCC(=O)O)NC(=O)[C@H](Cc1c[nH]cn1)NC(=O)[C@H](CC(N)=O)NC(=O)[C@H](CC(=O)O)NC(=O)[C@H](CC(N)=O)NC(=O)[C@H](CC(C)C)NC(=O)c1ccc2c(c1)C(=O)OC21c2ccc(O)cc2Oc2cc(O)ccc21)C(=O)N[C@@H](CCC(N)=O)C(=O)O [Fluo-Ia] (5FAM-LNDNHEELIQ-OH) | 74.5 ± 10.5 | Kd ([1]; 10 nM Fluo-Ia, 10 mM HEPES pH 7.5, 0.1% Tween-20, plus 10 mM NaCl, read-out: Binding constant in presence of 10 mM NaCl): 105 nM |
| CC[C@H](C)[C@H](NC(=O)[C@H](CC(C)C)NC(=O)[C@H](CCC(=O)O)NC(=O)[C@H](CCC(=O)O)NC(=O)[C@H](Cc1c[nH]cn1)NC(=O)[C@H](CC(N)=O)NC(=O)[C@H](CC(=O)O)NC(=O)[C@H](CC(N)=O)NC(=O)[C@H](CC(C)C)NC(=O)[C@H](CCCNC(=N)N)NC(=O)[C@H](CC(N)=O)NC(=O)[C@H](CCC(=O)O)NC(=O)[C@H](Cc1ccccc1)NC(=O)c1ccc2c(c1)C(=O)OC21c2ccc(O)cc2Oc2cc(O)ccc21)C(=O)N[C@@H](CCC(N)=O)C(=O)O [Fluo-Ib] (5FAM-FENRLNDNHEELIQ-OH) | 89.5 ± 13.9 |  |
| CC[C@H](C)[C@H](NC(=O)[C@H](CC(C)C)NC(=O)[C@H](CCC(=O)O)NC(=O)[C@H](CCC(=O)O)NC(=O)[C@H](Cc1c[nH]cn1)NC(=O)[C@H](CC(N)=O)NC(=O)[C@H](CC(C)C)NC(=O)[C@H](CC(N)=O)NC(=O)[C@H](CC(=O)O)NC(=O)c1ccc2c(c1)C(=O)OC21c2ccc(O)cc2Oc2cc(O)ccc21)C(=O)N[C@@H](CCC(N)=O)C(=O)O [Fluo-Ie] (5FAM-DNLNHEELIQ-OH; C-terminus assumed) | 175 ± 8.9 | ΔmP (dynamic range of polarization) ([1]; 10 nM fluorescein-labeled peptide titrated with Epsilon, 10 mM HEPES pH 7.5, 0.1% Tween-20): 115 |
| CC(C)C[C@H](NC(=O)c1ccc2c(c1)C(=O)OC21c2ccc(O)cc2Oc2cc(O)ccc21)C(=O)N[C@@H](CCCNC(=N)N)C(=O)N[C@@H](CO)C(=O)N[C@@H](C)C(=O)N[C@@H](CCC(=O)O)C(=O)N[C@@H](Cc1ccccc1)C(=O)N[C@@H](CCC(=O)O)C(=O)N[C@@H](CCC(=O)O)C(=O)N[C@H](C(=O)N[C@@H](CCC(N)=O)C(=O)O)[C@@H](C)O [Fluo-IIa] (5FAM-LRSAEFEETQ-OH) | 169 ± 16 |  |
| CC(C)C[C@H](NC(=O)[C@H](CO)NC(=O)[C@@H](NC(=O)[C@H](CC(=O)O)NC(=O)CNC(=O)[C@H](CO)NC(=O)CNC(=O)c1ccc2c(c1)C(=O)OC21c2ccc(O)cc2Oc2cc(O)ccc21)[C@@H](C)O)C(=O)N[C@@H](CCCNC(=N)N)C(=O)N[C@@H](CO)C(=O)N[C@@H](C)C(=O)N[C@@H](CCC(=O)O)C(=O)N[C@@H](Cc1ccccc1)C(=O)N[C@@H](CCC(=O)O)C(=O)N[C@@H](CCC(=O)O)C(=O)N[C@H](C(=O)N[C@@H](CCC(N)=O)C(=O)O)[C@@H](C)O [Fluo-IIc] (5FAM-GSGDTSLRSAEFEETQ-OH) | 134 ± 15 |  |
| Ac-GDTSLRSAEFEETQ [Ac-IIb] |  | IC50 ([2]; 500 nM Epsilon, 10 nM Fluo-IIb, read-out: IC50, competition with Fluo-IIb, 500 nM Epsilon): 15300 ± 2500 nM |
| CC(C)C[C@H](NC(=O)[C@H](CO)NC(=O)[C@@H](NC(=O)[C@H](CC(=O)O)NC(=O)CNC(=O)c1ccc2c(c1)C(=O)OC21c2ccc(O)cc2Oc2cc(O)ccc21)[C@@H](C)O)C(=O)N[C@@H](CCCNC(=N)N)C(=O)N[C@@H](CO)C(=O)N[C@@H](C)C(=O)N[C@@H](CCC(=O)O)C(=O)N[C@@H](Cc1ccccc1)C(=O)N[C@@H](CCC(=O)O)C(=O)N[C@@H](CCC(=O)O)C(=O)N[C@H](C(=O)N[C@@H](CCC(N)=O)C(=O)O)[C@@H](C)O [Fluo-IIb] (5FAM-GDTSLRSAEFEETQ-OH) | 99.5 ± 12.2 |  |
| Ac-LNDNHEELIQ [Ac-Ia] |  | IC50 ([2]; 100 nM Epsilon, 10 nM Fluo-Ia, read-out: IC50, competition with Fluo-Ia, 100 nM Epsilon): 18600 ± 4640 nM; IC50 ([2]; 500 nM Epsilon, 10 nM Fluo-Ia, read-out: IC50, competition with Fluo-Ia, 500 nM Epsilon): 51800 ± 7400 nM |
